Assay results taken from patent US11834401B2, “Treating and preventing diseases by modulating cell mechanics” (THE JOHNS HOPKINS UNIVERSITY, priority 2013, dated 2023).

How the values were obtained:
[1] = system: NLS-tdTomato expressing Dictyostelium cells; settings: for CIMPAQ hit category, kinase inhibitor collection / CIMPAQ hit category, ion channel collection: BIOMOL pilot screen; for CIMPAQ hit category, kinase inhibitor collection: 84 protein kinase inhibitors; for CIMPAQ hit category, ion channel collection: 70 ion channel inhibitors
Protocol: NLS-tdTomato expressing Dictyostelium cells were challenged with […] compounds from the ChemBridge Divert-SET library and imaged over three days. Raw data was segmented by CIMPAQ, a designed analytical platform, which rank ordered hits based on their cytokinesis or mitotic inhibitory activity, or lethality. Hits were confirmed through a dose-dependent secondary screening.
Ax3::NLS-tdTomato cells were plated on 384-well COP plates with a MicroFloSelect microplate dispenser (BioTek, Winooski, Vt.) at volumes of 80 μl with a cell concentration of 1000 cells/ml for the 24- and 48-hr time points and at the same volume with a cell concentration of 220 cells/ml for the 72-hr time point. Each plate contained four rows of untreated cells with 0.2% DMSO. For the remaining wells, […] of each small molecule maintained at the Johns Hopkins ChemCORE facility, was added, with a final DMSO concentration of 0.2%. Almost half of the ChemBridge Divert-SET library, which is a 50,000 compound chemical diversity library, was screened over a three-day period on a Becton Dickinson Pathway 855 Bioimager System using a 20× objective (NA 0.75). Each image consisted of a montage of four images collected around the center of the well, resulting in a total size of 1344×1024 pixels per image.
Secondary chemical screening was carried out in quadruplicate, with identical culturing conditions as to the primary screen. 14 mM stocks of each compounds dissolved in 100% DMSO were diluted to the following final concentrations: […], 3.5 nM, 35 nM, 350 nM, 3.5 μM, and 35 μM.
Raw image files from both the primary and secondary screening were processed through CIMPAQ (FIGS. 9E and 9F). The single wavelength fluorescence images were converted from 16-bit format to 8-bit format. The MATLAB Image Processing Toolbox was utilized to segment the images in order to identify the nuclei and cytoplasm. The number of nuclei within each segmented cell was quantified to produce a histogram of nuclei per cell for each image (FIG. 9G). All segmented cells that were coincident with the image edge were disregarded.
Image analysis using CIMPAQ: From the histogram of nuclei per cell count, the ratio of the number of multinucleate cells to the number of mononucleate cells and the ratio of the number of binucleate cells to the number of mononucleate cells were computed. Multinucleate cells are defined as cells that contain >2 nuclei. The distribution of both ratios across multiple wells were simultaneously visualized using a scatter plot, with the ratio of multinucleate cells to mononucleate cells plotted on the x-axis and the ratio of binucleate cells to mononucleate cells plotted on the y-axis (FIGS. 9H and 9I). Other information such as the average number of nuclei per cell, the mean nuclear area, and the normalized histogram with respect to total cell number were also computed.
Hit identification using CIMPAQ: Compounds that generate an increase in the number of multinucleate (>2 nuclei/cell) cells are considered cytokinesis inhibitors. Because nearly all cultured cells, including Dictyostelium, have a low background (typically <5% for WT) of non-mononucleate cells, CIMPAQ spreads the data for each sample by determining the ratio (bi:mono) of binucleate (2 nuclei/cell) to mononucleate cells and the ratio (multi:mono) of multinucleate (>2 nuclei/cell) to mononucleate cells. These two ratios then define a set of Cartesian coordinates, describing the effect of each compound on a given cell-line. The coordinates for each compound are plotted on a two-dimensional graph. CIMPAQ fits the control data to a two-dimensional Gaussian distribution (FIG. 9H) and determines the contour lines for two standard deviations (2SD), 3SD, etc. from the control mean (FIG. 9I).
Hit compounds are rank-ordered based on how many SDs away they are from the untreated wells.

[2] = target: EGF receptor tyrosine kinase (Homo sapiens, UniProt P00533); settings: cited from earlier work
Dictyostelium cells = assay: Micropipette aspiration cortical tension, Dictyostelium; type: cell-based, Dictyostelium discoideum; settings: acute treatment; 700 μM printed
Protocol: (§1) Micropipette aspiration was used for cortical tension and creep response measurements. Confocal imaging was performed on a Zeiss 510 Meta with a 63× (numerical aperture [NA] 1.4) objective (Carl Zeiss, Jena, Germany). Epifluorescence and TIRF imaging was performed in a 22° C. temperature controlled room with an Olympus IX81 microscope using a 40× (NA 1.3) or 60× (NA 1.49) objective and a 1.4× optovar (Olympus, Center Valley, Pa.), as previously described. Image analysis was performed with ImageJ (rsb.info.nih.gov/ij).
The instrumental and experimental setups have been previously described (Effler J C, et al., 2006; Kee Y-S, et al., 2013). Micropipette aspiration assays were all carried out in growth media with 0.1% DMSO. For cortical tension measurements of Dictyostelium cells, pressure was applied to the cell cortex with a micropipette (2-3 m radius, Rp) to the equilibrium pressure (ΔP) where the length of the cell inside the pipette (Lp) was equal to Rp. The effective cortical tension (Teff) was calculated by applying the Young-Laplace equation: ΔP=2Teff(1/Rp-1/Rc), where Rc is the radius of the cell and ΔP is the equilibrium pressure when Lp=Rp (Derganc J, et al., 2000; Octtaviani E, et al., 2006). For creep tests on mammalian strains, a constant aspiration stress was applied over 60 s. The micropipette radius was 3.5-4.5 m. For quantification, the Lp/Rp ratio values was measured every two seconds and plotted as a function of time. A10.7 and HEK293 cells could only be aspirated at a low pressure range (0.15 nN/μm^2), while HPDE, ASPC-1, and HL-60 cells could be aspirated at higher pressure ranges (0.25 nN/μm^2) because they were stiffer.

[3] = Degradation/stability of carbamate-7 in solvent (TLC, HPLC); type: physicochemical; settings: standing in methanol
Protocol: Upon standing in methanol, the product obtained above degraded within 2.5 hr, as determined by TLC analysis. Degradation appeared more rapid in DMSO, the solvent used to generate stock solutions for biological evaluation. Thus, carbamate-7 obtained either by chemical synthesis or commercially from ChemBridge was dissolved in DMSO (1 mg/mL), and a time course to study its degradation was initiated immediately upon solvation. To stop the degradation reaction such that the product distribution could be captured at early time points, aliquots (40 μL) were rapidly frozen into Eppendorf tubes incubating on dry ice. HPLC analysis on a Beckman Gold Nouveau HPLC System was performed on each sample immediately upon thawing. Carbamate-7 (5180622) degradation products were eluted at 3 mL/min from a Grace Alltima C18 column (length=53 mm, ID=7 mm, particle size=3 μM) over a linear gradient (5:95 acetonitrile/100 mM NH4OAc (pH 6.8) to 100% 100 mM NH4OAc (pH 6.8) over 15 min).
Comparison of the urea product to authentic N,N′-Bis(3,4-dichlorophenyl) urea was performed using a linear gradient (5:95 acetonitrile/100 mM NH4OAc (pH 6.8) to 100% 100 mM NH4OAc (pH 6.8) over 5 min). […] Confirmation of the urea was further confirmed via characteristic fragmentation patterns determined using product ion (MS-MS) analysis monitoring in negative ion mode (FIG. 11C).

myosin II = target: T1, myosin II (Dictyostelium discoideum, UniProt P08799); assay: Myosin II cortical localization by SIM, TIRF and confocal imaging; type: cell-based; settings: 500 nM time course
T1 construct: expressed in transfected cells; host or cells: Dictyostelium discoideum myoII null cells rescued with GFP-myosin II
Protocol: as §1
Imaging conditions during primary screen are described above. All other image analysis was performed as previously described (Kee Y S, et al., 2012). Cells were transferred from Petri dishes (with 0.1% DMSO incubation in growth media of 4 hrs) to imaging chambers and allowed to adhere for 20 min in growth media with 0.1% DMSO. After the cells adhered, the growth media was replaced with 2-(N-morpholino)ethanesulfonic acid (MES) starvation buffer (50 mM MES, pH 6.8, 2 mM MgCl2, 0.2 mM CaCl2) with 0.1% DMS. Confocal imaging was performed on aZeiss 510 Meta with a 63× (numerical aperture [NA] 1.4) objective (Carl Zeiss, Jena, Germany). Epifluorescence and TIR imaging was performed in a 22° C. temperature controlled room with an Olympus IX81 microscope using a 40× (NA 1.3) or 60× (NA […]) objective and a 1.4× optovar (Olympus, Center Valley, Pa.), as previously described. Image analysis was performed with ImageJ (rsb.info.nih.gov/ij). Many data sets were independently analyzed by multiple investigators.

T1 sequence (P08799 whole entry): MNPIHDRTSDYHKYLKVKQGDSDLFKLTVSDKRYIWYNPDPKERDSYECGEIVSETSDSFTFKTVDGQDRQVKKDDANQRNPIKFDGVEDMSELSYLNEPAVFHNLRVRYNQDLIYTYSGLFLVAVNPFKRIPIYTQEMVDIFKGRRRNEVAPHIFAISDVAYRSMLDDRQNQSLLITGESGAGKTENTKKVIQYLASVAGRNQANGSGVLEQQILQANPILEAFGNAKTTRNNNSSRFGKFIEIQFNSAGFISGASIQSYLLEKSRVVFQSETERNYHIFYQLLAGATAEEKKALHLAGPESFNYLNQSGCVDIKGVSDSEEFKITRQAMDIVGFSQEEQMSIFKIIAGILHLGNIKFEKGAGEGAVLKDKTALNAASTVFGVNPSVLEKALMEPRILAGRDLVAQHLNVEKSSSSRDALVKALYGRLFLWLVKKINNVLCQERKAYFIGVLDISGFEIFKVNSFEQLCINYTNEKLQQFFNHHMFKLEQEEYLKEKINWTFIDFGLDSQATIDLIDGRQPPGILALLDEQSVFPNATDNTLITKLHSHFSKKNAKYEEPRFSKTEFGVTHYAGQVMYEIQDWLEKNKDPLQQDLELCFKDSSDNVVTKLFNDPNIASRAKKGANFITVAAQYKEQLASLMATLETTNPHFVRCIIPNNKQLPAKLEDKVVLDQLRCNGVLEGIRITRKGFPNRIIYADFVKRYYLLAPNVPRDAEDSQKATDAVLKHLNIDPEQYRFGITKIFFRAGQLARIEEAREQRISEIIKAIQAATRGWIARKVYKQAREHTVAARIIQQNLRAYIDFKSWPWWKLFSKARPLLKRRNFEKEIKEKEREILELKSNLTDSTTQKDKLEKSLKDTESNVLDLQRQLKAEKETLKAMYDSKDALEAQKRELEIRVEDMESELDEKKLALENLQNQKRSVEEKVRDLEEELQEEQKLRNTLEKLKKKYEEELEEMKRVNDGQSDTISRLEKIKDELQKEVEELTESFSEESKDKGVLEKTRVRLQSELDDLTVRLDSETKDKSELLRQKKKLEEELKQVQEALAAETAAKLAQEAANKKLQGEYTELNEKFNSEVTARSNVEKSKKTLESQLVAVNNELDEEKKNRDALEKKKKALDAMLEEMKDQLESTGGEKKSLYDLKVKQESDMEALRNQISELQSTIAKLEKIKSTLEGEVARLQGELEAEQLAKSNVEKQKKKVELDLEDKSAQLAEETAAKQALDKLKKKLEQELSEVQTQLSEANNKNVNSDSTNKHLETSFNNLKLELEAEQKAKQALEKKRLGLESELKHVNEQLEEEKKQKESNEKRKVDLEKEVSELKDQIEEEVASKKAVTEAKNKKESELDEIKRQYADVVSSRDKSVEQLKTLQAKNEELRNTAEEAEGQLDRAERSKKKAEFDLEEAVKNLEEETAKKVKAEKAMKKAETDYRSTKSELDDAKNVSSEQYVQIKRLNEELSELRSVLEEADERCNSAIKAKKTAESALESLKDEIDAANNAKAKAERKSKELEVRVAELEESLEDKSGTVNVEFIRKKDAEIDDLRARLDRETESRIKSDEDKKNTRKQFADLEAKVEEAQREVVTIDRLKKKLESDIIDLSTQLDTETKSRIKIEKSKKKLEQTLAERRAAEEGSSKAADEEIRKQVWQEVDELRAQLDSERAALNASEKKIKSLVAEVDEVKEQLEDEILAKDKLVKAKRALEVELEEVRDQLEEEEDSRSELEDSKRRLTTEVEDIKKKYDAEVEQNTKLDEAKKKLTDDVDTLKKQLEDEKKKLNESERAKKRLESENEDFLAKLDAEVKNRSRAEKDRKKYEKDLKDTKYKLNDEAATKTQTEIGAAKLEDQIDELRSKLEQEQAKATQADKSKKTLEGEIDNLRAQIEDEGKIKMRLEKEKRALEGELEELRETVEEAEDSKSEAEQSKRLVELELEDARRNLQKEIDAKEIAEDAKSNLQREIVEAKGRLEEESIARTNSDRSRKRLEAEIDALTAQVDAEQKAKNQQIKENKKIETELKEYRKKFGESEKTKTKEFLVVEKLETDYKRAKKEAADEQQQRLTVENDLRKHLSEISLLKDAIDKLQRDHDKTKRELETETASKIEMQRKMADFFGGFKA
Sequence of EGF receptor tyrosine kinase (P00533 25-1210): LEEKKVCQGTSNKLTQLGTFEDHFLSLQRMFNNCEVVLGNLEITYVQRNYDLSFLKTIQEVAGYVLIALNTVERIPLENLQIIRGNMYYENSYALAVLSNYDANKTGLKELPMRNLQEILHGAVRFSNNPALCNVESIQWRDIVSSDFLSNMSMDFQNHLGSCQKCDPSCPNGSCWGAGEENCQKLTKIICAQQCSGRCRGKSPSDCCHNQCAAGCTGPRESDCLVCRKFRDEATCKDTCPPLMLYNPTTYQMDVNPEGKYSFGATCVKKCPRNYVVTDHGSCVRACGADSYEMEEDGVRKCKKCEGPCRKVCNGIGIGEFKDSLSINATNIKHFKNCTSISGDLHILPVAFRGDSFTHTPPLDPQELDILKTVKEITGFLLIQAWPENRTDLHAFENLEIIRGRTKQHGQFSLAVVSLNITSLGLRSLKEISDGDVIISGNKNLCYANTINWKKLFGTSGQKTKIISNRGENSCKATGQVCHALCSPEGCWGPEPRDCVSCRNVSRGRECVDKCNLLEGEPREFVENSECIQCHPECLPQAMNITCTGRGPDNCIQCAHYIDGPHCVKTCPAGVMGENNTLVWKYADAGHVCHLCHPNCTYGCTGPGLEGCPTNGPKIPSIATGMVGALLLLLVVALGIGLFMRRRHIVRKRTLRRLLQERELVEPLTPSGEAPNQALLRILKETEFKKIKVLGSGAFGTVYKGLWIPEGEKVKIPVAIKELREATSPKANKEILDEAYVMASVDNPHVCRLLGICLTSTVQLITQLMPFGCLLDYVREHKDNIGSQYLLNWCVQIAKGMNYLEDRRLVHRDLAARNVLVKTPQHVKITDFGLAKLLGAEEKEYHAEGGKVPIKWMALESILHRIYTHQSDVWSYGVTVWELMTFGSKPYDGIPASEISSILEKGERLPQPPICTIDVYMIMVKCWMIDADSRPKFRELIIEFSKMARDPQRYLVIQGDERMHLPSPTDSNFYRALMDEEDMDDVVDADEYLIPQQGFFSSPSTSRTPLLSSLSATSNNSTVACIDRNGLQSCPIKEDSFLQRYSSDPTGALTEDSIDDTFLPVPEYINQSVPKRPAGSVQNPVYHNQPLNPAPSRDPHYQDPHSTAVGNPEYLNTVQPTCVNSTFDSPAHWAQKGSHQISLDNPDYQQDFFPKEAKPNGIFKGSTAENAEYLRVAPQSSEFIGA

CCCCCCCCCCCCCCCC(=O)OC(CC(=O)O)C[N+](C)(C)C.[Cl-] (racemic) [Palmitoyl-DL-carnitine Cl]
CIMPAQ hit category, kinase inhibitor collection [1]: Lethal at 10 μM

O=C(O)c1cc(NCc2cc(O)ccc2O)ccc1O [2-Hydroxy-5-(2,5-dihydroxybenzylamino) benzoic acid]
CIMPAQ hit category, kinase inhibitor collection [1]: Lethal at 10 μM

C/C(CCc1ccccc1)=N\Nc1ccc([N+](=O)[O-])cc1 [4-phenyl-2-butanone (4-nitrophenyl) hydrazone]
cell division ([1]; Dictyostelium Drug Discovery Platform (3DP)): inhibit cell division

N#CC(=Cc1ccc2[nH]ccc2c1)C(N)=C(C#N)C#N [AG-370]
CIMPAQ hit category, kinase inhibitor collection [1]: Lethal at 5 μM

CNc1ccc2oc(C[C@H]3O[C@@]4(CC[C@H]3C)O[C@H]([C@H](C)C(=O)c3ccc[nH]3)[C@H](C)C[C@H]4C)nc2c1C(=O)O [Antibiotic A-23187]
CIMPAQ hit category, ion channel collection [1]: Lethal at 5 μM

CC(C)COCC(CN(Cc1ccccc1)c1ccccc1)N1CCCC1 (stereo not drawn) [Bepridil]
CIMPAQ hit category, ion channel collection [1]: Lethal at 5 μM

COC(=O)/C=C/c1cc(O)ccc1O [Erbstatin analog]
known IC50 [2]: inhibitor; known IC50 (0.5 μg/ml

COc1cccc(-c2cc(=O)c3ccccc3o2)c1N [PD-98059]
CIMPAQ hit category, kinase inhibitor collection [1]: Lethal at 5 μM

Cc1ccc(-c2nn(C(C)(C)C)c3ncnc(N)c23)cc1 [PP1]
CIMPAQ hit category, kinase inhibitor collection [1]: Lethal at 5 μM

COc1ccc(CCCOC(Cn2ccnc2)c2ccc(OC)cc2)cc1 (stereo not drawn) [SKF-96365]
CIMPAQ hit category, ion channel collection [1]: Lethal at 5 μM

CC(C)(C)c1cc(C=C(C#N)C#N)cc(C(C)(C)C)c1O [Tyrphostin 9]
CIMPAQ hit category, kinase inhibitor collection [1]: Lethal at 5 μM

CC(=O)c1ccc(OC(=O)Nc2ccc(Cl)c(Cl)c2)cc1 [carbamate-7, 4-acetylphenyl-(3,4-dichlorophenyl) carbamate]
increase in cortical tension (Dictyostelium cells): 1.4 fold | time to degradation [3]: ≤ 2.5 h

COC(=O)Nc1nc2ccc(C(=O)c3cccs3)cc2[nH]1 [nocodazole]
identification as early mitotic inhibitor (average nuclear area greater than 28 pixels) [1]: reliably identified

O=C(Nc1ccc(Cl)c(Cl)c1)Nc1ccc(Cl)c(Cl)c1 [urea, N,N′-bis(3,4-dichlorophenyl)urea]
changes in myosin II cortical distribution (TIRF) (myosin II): Neither 3,4-DCA nor the urea result in changes in myosin II cortical distribution
